Assay [1] addresses T1, human RXFP3 (Homo sapiens, UniProt Q9NSD7).
T1 construct: expressed in transfected cells; host or cells: HEK293T
T1 sequence (Q9NSD7 1-469): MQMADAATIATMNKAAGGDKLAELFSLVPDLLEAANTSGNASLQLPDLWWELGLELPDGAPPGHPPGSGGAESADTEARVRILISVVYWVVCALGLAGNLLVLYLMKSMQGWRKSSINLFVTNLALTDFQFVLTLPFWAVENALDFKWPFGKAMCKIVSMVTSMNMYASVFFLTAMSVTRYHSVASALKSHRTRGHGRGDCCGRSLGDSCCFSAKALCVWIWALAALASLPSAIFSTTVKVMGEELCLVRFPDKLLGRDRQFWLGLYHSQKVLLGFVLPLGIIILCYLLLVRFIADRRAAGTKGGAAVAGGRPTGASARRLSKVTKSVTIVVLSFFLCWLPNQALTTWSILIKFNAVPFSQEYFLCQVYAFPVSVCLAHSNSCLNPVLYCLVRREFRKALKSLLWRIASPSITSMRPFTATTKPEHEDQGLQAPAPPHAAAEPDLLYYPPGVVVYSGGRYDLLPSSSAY
Briefly: Receptor activation assay, CRE-controlled NanoLuc reporter. It counts as cell-based. The settings on record: for fold lower activation potency towards RXFP3 compared with wild-type R3/I5: lower than wild-type R3/I5. Here is the method: (§1) Figure 4 Receptor activation activities of the mature INSL5 and R3/I5 mutants towards RXFP3 and RXFP4. HEK293T cells transiently cotransfected by human RXFP3 or human RXFP4 and a CRE-controlled NanoLuc reporter were used for the activation assays. The measured data were expressed as mean ± SE (n = 3) and fitted to sigmoidal or linear curves using the software SigmaPlot 10.0.
(§2) The receptor activation assays of the mature INSL5 and R3/I5 mutants were carried out using a cAMP-response element (CRE)-controlled NanoLuc reporter according to our previous procedure. Briefly, HEK293T cells were transiently cotransfected with the expression construct of human RXFP3 or human RXFP4 and the CRE-controlled NanoLuc reporter vector pNL1.2/CRE. Next day, the transfected cells were trypsinised, seeded into a 96-well plate, and continuously cultured for 24–36 h to ~90% confluence. To start activation assay, the medium was removed and the activation solution (serum-free DMEM medium plus 1% bovine serum albumin) containing 1.0 μM of forskolin and varied concentrations of peptide was added (100 μl/well). After being continuously cultured at 37 °C for 4 h, the activation solution was removed and the cells were lysed by lysis solution (100 μl/well, from Promega). The cell lysate was then transferred to a white opaque 96-well plate (50 μl/well), mixed with the freshly diluted substrate (50 μl/well), and bioluminescence was immediately measured on a SpectraMax M5 plate reader (Molecular Devices) using the luminescence mode. The measured bioluminescence data were expressed as mean ± SE (n = 3) and fitted to sigmoidal or linear curves using the SigmaPlot10.0 software.

The target of assay [2] is T2, human RXFP4 (Homo sapiens, UniProt Q8TDU9).
T2 construct: expressed in transfected cells; host or cells: HEK293T
T2 sequence (Q8TDU9 whole entry): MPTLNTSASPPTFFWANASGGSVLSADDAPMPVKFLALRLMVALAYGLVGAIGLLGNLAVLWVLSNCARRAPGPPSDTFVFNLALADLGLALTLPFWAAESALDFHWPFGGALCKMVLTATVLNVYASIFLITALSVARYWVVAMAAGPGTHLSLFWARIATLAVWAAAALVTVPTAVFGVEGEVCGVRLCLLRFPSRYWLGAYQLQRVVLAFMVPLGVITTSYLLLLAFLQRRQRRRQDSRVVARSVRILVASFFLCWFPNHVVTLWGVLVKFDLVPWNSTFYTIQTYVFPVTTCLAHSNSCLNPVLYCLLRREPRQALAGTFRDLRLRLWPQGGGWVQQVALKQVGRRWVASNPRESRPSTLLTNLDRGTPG
Briefly: Receptor binding assay, competition with NanoLuc-conjugated R3/I5 tracer. The conditions noted are these: lower than wild-type R3/I5. Here is the method: (§3) Figure 3 Receptor binding activities of the mature INSL5 and R3/I5 mutants towards RXFP3 and RXFP4. A NanoLuc-conjugated R3/I5 peptide was used as tracer and HEK293T cells transiently overexpressing human RXFP3 or human RXFP4 were used as receptor source. The tracer concentration used in these assays was 0.5 nM. The nonspecific binding was obtained by competition with 1.0 μM of relaxin-3. The measured data were expressed as mean ± SE (n = 3) and fitted to sigmoidal curves using the software SigmaPlot 10.0.
(§4) The receptor binding assays of the mature INSL5 and R3/I5 mutants were carried out using a NanoLuc-conjugated R3/I5 peptide as tracer and the human embryonic kidney (HEK) 293T cells transiently overexpressing human RXFP3 or human RXFP4 as receptor source. Nonspecific binding was obtained by competition with 1.0 μM of human relaxin-3. Briefly, HEK293T cells were transiently transfected with the expression construct of human RXFP3 or human RXFP4. Next day, the transfected cells were trypsinised, seeded into a 96-well plate, and continuously cultured for 24–36 h to confluence. To start binding assay, the medium was removed and the binding solution (serum-free DMEM medium plus 1% bovine serum albumin) containing 0.5 nM of the NanoLuc-conjugated R3/I5 tracer and varied concentrations of competitor was added (100 μl/well). After incubation at 21 °C for 2 h, the binding solution was removed and the cells were washed twice by ice-cold phosphate-buffered saline (200 μl/well for each wash). Thereafter, the cells were lysed by lysis solution (100 μl/well, from Promega, Madison, WI, USA) and the cell lysate was transferred to a white opaque 96-well plate (50 μl/well). After mixing with the freshly diluted substrate (50 μl/well), bioluminescence was immediately measured on a SpectraMax M5 plate reader (Molecular Devices, Sunnyvale, CA, USA) using the luminescence mode. The measured bioluminescence data were expressed as mean ± SE (n = 3) and fitted to sigmoidal curves using the SigmaPlot10.0 software.

Assay [3] concerns the target T2, human RXFP4. In words: Receptor activation assay, CRE-controlled NanoLuc reporter. It counts as cell-based. The conditions noted are these: lower than wild-type R3/I5. Here is the method:
as §1, §2

In assay [4] the target is T1, human RXFP3. Briefly: Receptor binding assay, competition with NanoLuc-conjugated R3/I5 tracer. The settings on record: lower than wild-type R3/I5. Here is the method: as §3, §4

Consider `CC[C@H](C)[C@@H]1NC(=O)[C@H](Cc2ccccc2)NC(=O)[C@H](CCC(=O)O)NC(=O)[C@H](CCCNC(=N)N)NC(=O)CNC(=O)[C@@H](NC(=O)[C@H](CC(C)C)NC(=O)[C@H](CCCCN)NC(=O)[C@@H](NC(=O)CNC(=O)[C@H](CCC(=O)O)NC(=O)[C@@H]2CCCN2C(=O)[C@H](C)NC(=O)[C@H](C)NC(=O)[C@@H](N)CCCNC(=N)N)C(C)C)CSSC[C@@H]2NC(=O)[C@@H](NC(=O)[C@H](CC(C)C)NC(=O)[C@@H](NC(=O)[C@H](CCC(N)=O)NC(=O)[C@H](CC(C)C)NC(=O)[C@H](CC(=O)O)NC(=O)[C@@H](N)CCC(N)=O)[C@@H](C)O)CSSC[C@H](NC(=O)CNC(=O)[C@H](CC(=O)O)NC(=O)[C@H]([C@@H](C)O)NC2=O)C(=O)N[C@@H](CO)C(=O)N[C@@H](CCSC)C(=O)N[C@@H]([C@@H](C)O)C(=O)N[C@@H](CC(=O)O)C(=O)N[C@@H](CC(C)C)C(=O)N[C@@H](CO)C(=O)N[C@@H](C)C(=O)N[C@@H](CC(C)C)C(=O)N[C@H](C(=O)O)CSSC[C@@H](C(=O)NCC(=O)NCC(=O)N[C@@H](CO)C(=O)N[C@@H](CCCNC(=N)N)C(=O)N[C@@H](Cc2c[nH]c3ccccc23)C(=O)O)NC(=O)[C@H]([C@@H](C)O)NC(=O)[C@H](Cc2ccccc2)NC(=O)[C@H]([C@@H](C)CC)NC(=O)[C@H](C(C)C)NC(=O)[C@H](C)NC(=O)[C@H](CCCNC(=N)N)NC1=O` [[Y(B5)E]R3/I5], for which, at human RXFP3 [1], the “fold lower activation potency towards RXFP3 compared with wild-type R3/I5” value was ~ 6 fold.

As to `CC[C@H](C)[C@@H]1NC(=O)[C@H](Cc2ccccc2)NC(=O)[C@H](CCC(=O)O)NC(=O)[C@H](CCCNC(=N)N)NC(=O)CNC(=O)[C@@H](NC(=O)[C@H](CC(C)C)NC(=O)[C@H](CCCCN)NC(=O)[C@@H](NC(=O)CNC(=O)[C@H](Cc2ccc(O)cc2)NC(=O)[C@@H]2CCCN2C(=O)[C@H](C)NC(=O)[C@H](C)NC(=O)[C@@H](N)CCCNC(=N)N)C(C)C)CSSC[C@@H]2NC(=O)[C@@H](NC(=O)[C@H](CC(C)C)NC(=O)[C@@H](NC(=O)[C@H](CCC(N)=O)NC(=O)[C@H](CC(C)C)NC(=O)[C@H](CC(=O)O)NC(=O)[C@@H](N)CCC(N)=O)[C@@H](C)O)CSSC[C@H](NC(=O)CNC(=O)[C@H](CC(=O)O)NC(=O)[C@H]([C@@H](C)O)NC2=O)C(=O)N[C@@H](CO)C(=O)N[C@@H](CCSC)C(=O)N[C@@H]([C@@H](C)O)C(=O)N[C@@H](CC(=O)O)C(=O)N[C@@H](CC(C)C)C(=O)N[C@@H](CO)C(=O)N[C@@H](C)C(=O)N[C@@H](CC(C)C)C(=O)N[C@H](C(=O)O)CSSC[C@@H](C(=O)NCC(=O)NCC(=O)N[C@@H](CO)C(=O)N[C@@H](CCCNC(=N)N)C(=O)N[C@@H](Cc2c[nH]c3ccccc23)C(=O)O)NC(=O)[C@H]([C@@H](C)O)NC(=O)[C@H](Cc2ccc(O)cc2)NC(=O)[C@H]([C@@H](C)CC)NC(=O)[C@H](C(C)C)NC(=O)[C@H](C)NC(=O)[C@H](CCCNC(=N)N)NC1=O` [[F(B20)Y]R3/I5], the “fold lower binding potency towards RXFP4 compared with wild-type R3/I5” value on human RXFP4 [2] is ~ 3 fold. For the same compound, the “fold lower activation potency towards RXFP3 compared with wild-type R3/I5” value at human RXFP3 [1] is ~ 3 fold. For the same compound, the “fold lower activation potency towards RXFP4 than wild-type R3/I5” value at human RXFP4 [3] is ~ 15 fold.

Consider `CC[C@H](C)[C@@H]1NC(=O)[C@H](Cc2ccccc2)NC(=O)[C@H](CCC(=O)O)NC(=O)[C@H](CC(C)C)NC(=O)CNC(=O)[C@@H](NC(=O)[C@H](CC(C)C)NC(=O)[C@H](CCCCN)NC(=O)[C@@H](NC(=O)CNC(=O)[C@H](Cc2ccc(O)cc2)NC(=O)[C@@H]2CCCN2C(=O)[C@H](C)NC(=O)[C@H](C)NC(=O)[C@@H](N)CCCNC(=N)N)C(C)C)CSSC[C@@H]2NC(=O)[C@@H](NC(=O)[C@H](CC(C)C)NC(=O)[C@@H](NC(=O)[C@H](CCC(N)=O)NC(=O)[C@H](CC(C)C)NC(=O)[C@H](CC(=O)O)NC(=O)[C@@H](N)CCC(N)=O)[C@@H](C)O)CSSC[C@H](NC(=O)CNC(=O)[C@H](CC(=O)O)NC(=O)[C@H]([C@@H](C)O)NC2=O)C(=O)N[C@@H](CO)C(=O)N[C@@H](CCSC)C(=O)N[C@@H]([C@@H](C)O)C(=O)N[C@@H](CC(=O)O)C(=O)N[C@@H](CC(C)C)C(=O)N[C@@H](CO)C(=O)N[C@@H](C)C(=O)N[C@@H](CC(C)C)C(=O)N[C@H](C(=O)O)CSSC[C@@H](C(=O)NCC(=O)NCC(=O)N[C@@H](CO)C(=O)N[C@@H](CCCNC(=N)N)C(=O)N[C@@H](Cc2c[nH]c3ccccc23)C(=O)O)NC(=O)[C@H]([C@@H](C)O)NC(=O)[C@H](Cc2ccccc2)NC(=O)[C@H]([C@@H](C)CC)NC(=O)[C@H](C(C)C)NC(=O)[C@H](C)NC(=O)[C@H](CCCNC(=N)N)NC1=O` [[R(B12)L]R3/I5], for which the “fold lower binding potency towards RXFP3 compared with wild-type R3/I5” value on human RXFP3 [4] was ~ 110 fold. Also, the “fold lower activation potency towards RXFP3 compared with wild-type R3/I5” value at human RXFP3 [1] was ~ 1600 fold.

As to `CC[C@H](C)[C@@H]1NC(=O)[C@H](Cc2ccccc2)NC(=O)[C@H]([C@@H](C)CC)NC(=O)[C@H](C(C)C)NC(=O)[C@H]([C@@H](C)O)NC(=O)[C@H](CCCNC(=N)N)NC(=O)[C@H]([C@@H](C)CC)NC(=O)[C@H](Cc2ccc(O)cc2)NC(=O)[C@H](CCC(=O)O)NC(=O)[C@H](CCCNC(=N)N)NC(=O)CNC(=O)[C@@H](NC(=O)[C@H](CC(C)C)NC(=O)[C@H](CCCNC(=N)N)NC(=O)[C@@H](NC(=O)[C@H](CO)NC(=O)[C@H](CCC(=O)O)NC(=O)[C@@H](N)CCCCN)C(C)C)CSSC[C@@H]2NC(=O)[C@@H](NC(=O)[C@H](CC(C)C)NC(=O)[C@@H](NC(=O)[C@H](CCC(N)=O)NC(=O)[C@H](CC(C)C)NC(=O)[C@H](CC(=O)O)NC(=O)[C@@H](N)CCC(N)=O)[C@@H](C)O)CSSC[C@H](NC(=O)CNC(=O)[C@H](CC(=O)O)NC(=O)[C@H]([C@@H](C)O)NC2=O)C(=O)N[C@@H](CO)C(=O)N[C@@H](CCSC)C(=O)N[C@@H]([C@@H](C)O)C(=O)N[C@@H](CC(=O)O)C(=O)N[C@@H](CC(C)C)C(=O)N[C@@H](CO)C(=O)N[C@@H](C)C(=O)N[C@@H](CC(C)C)C(=O)N[C@H](C(=O)O)CSSC[C@@H](C(=O)NCC(=O)NCC(=O)N[C@@H](CO)C(=O)N[C@@H](CCCNC(=N)N)C(=O)N[C@@H](Cc2c[nH]c3ccccc23)C(=O)O)NC1=O` [[L(B9)R,Y(B17)F,A(B20)G,S(B21)G]INSL5], the “fold lower activation potency towards RXFP3 than relaxin-3” value on human RXFP3 [1] (lower than relaxin-3) was ~ 100 fold.
